# According to PMC5491903, “The Selective Phosphoinoside-3-Kinase p110δ Inhibitor IPI-3063 Potently Suppresses B Cell Survival, Proliferation, and Differentiation” (Frontiers in Immunology, 2017):
# Legend:
# Format in all cases: cell-based
# [1] = system: LPS-stimulated mouse B cells; test: mouse plasmablast differentiation (CD138+B220lo); conditions: 72 h
# Procedure: Figure 5 IPI-3063 potently […] mouse B cell antibody switching and inhibits plasmablast differentiation. Purified B cells were pretreated with inhibitors, then stimulated with αCD40 + IL-4 (B) or LPS + IL-4 (C) for 96 h to induce switching to IgG1 or LPS (D) for 72 h to induce plasmablast differentiation. Class switching to IgG1 was measured by the 7AAD^−CFSE^loB220^+IgG1^+ cells [(A), upper panels]. Plasmablast percentages were calculated by % 7AAD^−CFSE^loCD138^+B220^lo population [(A), lower]. Supernatant was harvested (E) for IgM ELISA. Concentrations used were 1 nM, 10 nM, 100 nM, 1 µM for IPI-443 and 1, 10, 30, 100 nM for IPI-3063. Low concentrations of IPI-3063 were 0.01 and 0.1 nM (D). AS252424 concentrations were 100 nM, 300 nM, and 1 µM, and GDC-0941 was at 500 nM. Samples were collected by time (*P < 0.05, **P < 0.001, ***P < 0.0001 one-way ANOVA with Newman–Keuls multiple comparison test). […]
# We also evaluated plasmablast differentiation and IgM secretion in LPS-stimulated cells (Figure 5D). […]
# (§1) Mouse splenic B cells were purified by negative selection (eBioscience Magnisort Mouse B cell enrichment kit). B-cell purity was >95% as measured by FACS analysis (FACSCalibur and CellQuest software; BD Biosciences) using anti-B220 antibody (BioLegend). […]
# mouse B cells = test: mouse B cell survival (B220+7AAD- viability, 48 h)
# Procedure: To assess survival, purified mouse B cells were incubated for 48 h in either B-cell activating factor (BAFF) or interleukin-4 (IL-4) with various concentrations of IPI-3063 and IPI-443. […] The selective PI3K inhibitor IPI-3063 was very potent, achieving a significant decrease in B cell survival when present at 10 nM.
# Total splenocytes were pretreated with inhibitors as indicated, then cultured with 10 ng/mL IL-4 (A) or 60 ng/mL of BAFF (B) for 48 h. Concentrations used were 1 nM, 10 nM, 100 nM, 1 µM for IPI-443 and 1, 10, 30, 100 nM for IPI-3063. AS252424 concentrations were 100 nM, 300 nM, and 1 µM, and GDC-0941 was at 500 nM. % viability was calculated by measuring % of B220^+7AAD^− cells. Samples were collected by time. (*P < 0.05, **P < 0.001, ***P < 0.0001 one-way ANOVA with Newman–Keuls multiple comparison test).
# mouse primary B cells = test: mouse B cell antibody class switching to IgG1; conditions: αCD40 + IL-4, 96 h
# Text: Studies with p110δ inhibitors have shown that low PI3K signaling in B cells promotes antibody class switch recombination (CSR) and decreases differentiation into plasmablasts that secrete low-affinity IgM ([18], [19]). Activation of mouse primary B cells with αCD40 + IL-4 or LPS + IL-4 both induce IgG1 class switching while treatment with LPS alone induces the plasmablast differentiation fate (Figure 5A). In B cells stimulated with αCD40 + IL-4, IPI-3063 increased the percentage of B220^+ cells switching to IgG1 starting at 1 nM and approached the effect of GDC-0941 (Figure 5B).
# Figure 5 IPI-3063 potently […] mouse B cell antibody switching and inhibits plasmablast differentiation. Purified B cells were pretreated with inhibitors, then stimulated with αCD40 + IL-4 (B) or LPS + IL-4 (C) for 96 h to induce switching to IgG1 or LPS (D) for 72 h to induce plasmablast differentiation. Class switching to IgG1 was measured by the 7AAD^−CFSE^loB220^+IgG1^+ cells [(A), upper panels]. Plasmablast percentages were calculated by % 7AAD^−CFSE^loCD138^+B220^lo population [(A), lower]. Supernatant was harvested (E) for IgM ELISA. […]
# as §1
SMILES,effect on plasmablast differentiation [1],"effect on survival (mouse B cells; BAFF or IL-4, 48 h)",effect on IgG1 switching (mouse primary B cells),concentration that decreases plasmablast differentiation ([1]; % CD138+B220lo) [nM],"concentration with significant decrease in B cell survival (mouse B cells; BAFF, 48 h) [nM]",concentration that increases percentage of B220+ cells switching to IgG1 (mouse primary B cells) [nM]
"O=C1NC(=O)/C(=C/c2ccc(-c3ccc(F)cc3O)o2)S1 [AS-252424, reference compound]",no significant effect,no significant effect,no effect,–,–,–
CC(C)n1c([C@H](C)Nc2ncnc(N)c2C#N)cc2cccc(-c3ccc(=O)n(C)c3)c2c1=O [IPI-3063],–,–,–,≥ 1,10,≥ 1
